Measured values from the NIST ThermoML archive (doi:10.1021/je300853z).
± gives the expanded uncertainty stated by the source.

Assay: excess molar enthalpy (molar enthalpy of mixing); xn = mol fraction of the nth substance listed
Settings: 101 kPa, Liquid, Calvet calorimetry

CCCCCCCC[n+]1ccc2ccccc2c1.N#C[S-] [2-octylisoquinolinium thiocyanate] + O
Settings | excess molar enthalpy [kcal/mol]
298.15 K, x1 = 0.2433 | 0.0308 ± 0.00043
298.15 K, x1 = 0.258 | 0.0292 ± 0.000406
298.15 K, x1 = 0.2745 | 0.0249 ± 0.000382
298.15 K, x1 = 0.2933 | 0.0158 ± 0.000311
298.15 K, x1 = 0.3149 | 0.00142 ± 0.000201
298.15 K, x1 = 0.3361 | -0.0125 ± 0.000287
298.15 K, x1 = 0.3603 | -0.0289 ± 0.000406
298.15 K, x1 = 0.3833 | -0.0433 ± 0.000526
298.15 K, x1 = 0.4094 | -0.0581 ± 0.000645
298.15 K, x1 = 0.4329 | -0.0703 ± 0.000741
298.15 K, x1 = 0.4593 | -0.08198 ± 0.000813
298.15 K, x1 = 0.4892 | -0.09345 ± 0.000908
298.15 K, x1 = 0.5141 | -0.1009 ± 0.00098
298.15 K, x1 = 0.5417 | -0.1071 ± 0.00103
298.15 K, x1 = 0.5724 | -0.1116 ± 0.00105
298.15 K, x1 = 0.6068 | -0.1138 ± 0.00108
298.15 K, x1 = 0.6457 | -0.113 ± 0.00108
298.15 K, x1 = 0.6742 | -0.1107 ± 0.00105
298.15 K, x1 = 0.7053 | -0.1052 ± 0.001
298.15 K, x1 = 0.7395 | -0.09728 ± 0.000956
298.15 K, x1 = 0.7771 | -0.08676 ± 0.00086
298.15 K, x1 = 0.7969 | -0.0805 ± 0.000813
298.15 K, x1 = 0.8176 | -0.0727 ± 0.000741
298.15 K, x1 = 0.8395 | -0.0641 ± 0.000693
298.15 K, x1 = 0.8626 | -0.0543 ± 0.000621
298.15 K, x1 = 0.887 | -0.0445 ± 0.000526
298.15 K, x1 = 0.9128 | -0.0332 ± 0.000454
298.15 K, x1 = 0.9401 | -0.0211 ± 0.000359
298.15 K, x1 = 0.9691 | -0.00755 ± 0.000263
303.15 K, x1 = 0.2439 | 0.0421 ± 0.000502
303.15 K, x1 = 0.2588 | 0.0373 ± 0.000478
303.15 K, x1 = 0.2756 | 0.0294 ± 0.000406
303.15 K, x1 = 0.2947 | 0.0165 ± 0.000311
303.15 K, x1 = 0.3133 | 0.00311 ± 0.000213
303.15 K, x1 = 0.3344 | -0.0118 ± 0.000287
303.15 K, x1 = 0.3586 | -0.0282 ± 0.000406
303.15 K, x1 = 0.3815 | -0.043 ± 0.000526
303.15 K, x1 = 0.4076 | -0.0583 ± 0.000645
303.15 K, x1 = 0.4311 | -0.0707 ± 0.000741
303.15 K, x1 = 0.4575 | -0.0829 ± 0.000837
303.15 K, x1 = 0.4873 | -0.09441 ± 0.000932
303.15 K, x1 = 0.5122 | -0.1021 ± 0.00098
303.15 K, x1 = 0.5398 | -0.1087 ± 0.00103
303.15 K, x1 = 0.5706 | -0.1138 ± 0.00108
303.15 K, x1 = 0.605 | -0.1166 ± 0.0011
303.15 K, x1 = 0.644 | -0.1169 ± 0.0011
303.15 K, x1 = 0.6725 | -0.1147 ± 0.00108
303.15 K, x1 = 0.7038 | -0.1107 ± 0.00105
303.15 K, x1 = 0.7381 | -0.104 ± 0.001
303.15 K, x1 = 0.7758 | -0.09393 ± 0.000908
303.15 K, x1 = 0.7957 | -0.08795 ± 0.00086
303.15 K, x1 = 0.8165 | -0.081 ± 0.000813
303.15 K, x1 = 0.8385 | -0.0729 ± 0.000765
303.15 K, x1 = 0.8617 | -0.0643 ± 0.000693
303.15 K, x1 = 0.8862 | -0.055 ± 0.000621
303.15 K, x1 = 0.9122 | -0.0435 ± 0.000526
303.15 K, x1 = 0.9397 | -0.0304 ± 0.00043
303.15 K, x1 = 0.9689 | -0.0157 ± 0.000311
308.15 K, x1 = 0.214 | 0.0641 ± 0.000693
308.15 K, x1 = 0.2281 | 0.0612 ± 0.000669
308.15 K, x1 = 0.2422 | 0.0562 ± 0.000621
308.15 K, x1 = 0.2581 | 0.0454 ± 0.000526
308.15 K, x1 = 0.2762 | 0.0311 ± 0.00043
308.15 K, x1 = 0.297 | 0.0144 ± 0.000311
308.15 K, x1 = 0.3176 | -0.00142 ± 0.000201
308.15 K, x1 = 0.3411 | -0.0193 ± 0.000335
308.15 K, x1 = 0.3636 | -0.0349 ± 0.000454
308.15 K, x1 = 0.3892 | -0.0516 ± 0.000574
308.15 K, x1 = 0.4124 | -0.065 ± 0.000693
308.15 K, x1 = 0.4385 | -0.0782 ± 0.000789
308.15 K, x1 = 0.4682 | -0.0913 ± 0.000884
308.15 K, x1 = 0.493 | -0.1001 ± 0.000956
308.15 K, x1 = 0.5207 | -0.1083 ± 0.00103
308.15 K, x1 = 0.5517 | -0.1147 ± 0.00108
308.15 K, x1 = 0.5866 | -0.1193 ± 0.00112
308.15 K, x1 = 0.6262 | -0.1207 ± 0.00112
308.15 K, x1 = 0.6554 | -0.1195 ± 0.00112
308.15 K, x1 = 0.6876 | -0.1164 ± 0.0011
308.15 K, x1 = 0.723 | -0.1104 ± 0.00105
308.15 K, x1 = 0.7622 | -0.1016 ± 0.00098
308.15 K, x1 = 0.7829 | -0.09632 ± 0.000932
308.15 K, x1 = 0.8048 | -0.08987 ± 0.000884
308.15 K, x1 = 0.8278 | -0.0825 ± 0.000837
